In brackets after ≈: the same amount, converted by molar mass.
How the values were obtained:
[1] = Solubility of finasteride in Unistab S-69 (dosing by HPLC); assay type: physicochemical; details: Unistab S-69 (commercial mixture of farnesol and linalool), oil or lipid
Description: The second embodiment of the invention is to increase the encapsulation of finasteride by the addition of a new oil in the formulation's lipid core composition in which the solubility is greater than in caprylic and capric triglycerides. To this end, Unistab® S-69, a commercial mixture, was preferentially employed and consists of farnesol and linalool, in which the solubility of finasteride is about 90 mg/mL (dosing done by HPLC). Farnesol is a sesquiterpene alcohol and linalool is a terpenic alcohol, both found in various essential oils and insoluble in water but miscible with oils and other organic solvents such as acetone and ethanol. For being volatile, Unistab® S-69 was mixed with triglycerides in a ratio of 2.3: 1 (v/v) (Unistab® S-69: triglycerides). However, this proportion, considering the saturation of finasteride in Unistab® S-69, could be employed in the preparation of a formulation with a drug concentration of 2.0 mg/ml, due to the volatility of Unistab® S-69 and to the consequent loss of oil due to the draw caused by steam during the process of solvent evaporation under reduced pressure, a formulation was prepared with a finasteride concentration of 0.5 mg/ml, in order to ensure the nanometric features of the system. This formulation comprising a new lipid core represents the second embodiment of the invention.

[2] = test system: men aged 18 to 41 years; details: 1 mg daily, at the end of five years; cited from earlier work

For `CC(C)(C)NC(=O)[C@H]1CC[C@H]2[C@@H]3CC[C@H]4NC(=O)C=C[C@]4(C)[C@H]3CC[C@]12C` [finasteride], the solubility [1] is given as roughly 90 mg/mL (≈ 242 mM) and the “Patients who developed baldness” value [2] is given as 10%.

— US9895302B2, “Finasteride polymeric nanoparticle, aqueous suspension containing the same, composition for the treatment of alopecia, process of preparation of said composition, and its use” (Biolab Sanus Farmaceutica Ltda., priority 2012, dated 2018)
